The source of these data is patent publication US9029386B2, “Pyridine derivatives useful as kinase inhibitors” (YM Biosciences Australia Pty Ltd, priority 2006, dated 2015).

Where only a bound is given, the exact number is not on record here.

The target of the assay is T1, FLT-3 tyrosine kinase (Homo sapiens, UniProt P36888).
T1 construct: purchased Upstate Cell Signalling Solutions, CA, USA 14-500
T1 sequence (P36888 27-993): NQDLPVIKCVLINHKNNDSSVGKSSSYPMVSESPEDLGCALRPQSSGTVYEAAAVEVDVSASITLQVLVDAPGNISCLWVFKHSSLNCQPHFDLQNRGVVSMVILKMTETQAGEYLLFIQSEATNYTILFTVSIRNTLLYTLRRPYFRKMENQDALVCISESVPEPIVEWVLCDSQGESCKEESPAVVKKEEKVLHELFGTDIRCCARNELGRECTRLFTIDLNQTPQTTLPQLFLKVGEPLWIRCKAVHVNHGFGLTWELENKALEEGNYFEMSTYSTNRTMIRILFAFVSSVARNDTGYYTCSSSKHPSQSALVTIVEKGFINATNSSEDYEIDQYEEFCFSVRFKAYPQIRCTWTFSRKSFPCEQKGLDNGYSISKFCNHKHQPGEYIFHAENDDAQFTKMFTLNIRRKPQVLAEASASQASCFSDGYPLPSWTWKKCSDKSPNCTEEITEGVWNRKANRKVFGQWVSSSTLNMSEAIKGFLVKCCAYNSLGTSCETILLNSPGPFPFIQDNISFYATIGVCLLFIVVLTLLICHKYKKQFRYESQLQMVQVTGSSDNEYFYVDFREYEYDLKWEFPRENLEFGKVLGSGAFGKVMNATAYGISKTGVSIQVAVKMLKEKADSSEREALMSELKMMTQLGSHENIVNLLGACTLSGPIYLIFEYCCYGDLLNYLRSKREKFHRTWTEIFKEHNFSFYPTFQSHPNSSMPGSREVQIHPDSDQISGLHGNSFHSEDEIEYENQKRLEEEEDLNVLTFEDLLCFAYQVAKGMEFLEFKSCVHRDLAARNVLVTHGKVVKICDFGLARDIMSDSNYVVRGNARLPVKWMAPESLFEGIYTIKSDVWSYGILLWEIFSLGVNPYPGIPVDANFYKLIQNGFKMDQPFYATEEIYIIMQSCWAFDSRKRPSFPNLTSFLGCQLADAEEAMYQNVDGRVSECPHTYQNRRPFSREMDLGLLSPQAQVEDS
Briefly: Alphascreen protein tyrosine kinase assay, FLT-3. The conditions noted are these: read-out: Flt3. The format is biochemical.

Regarding `Cc1cccc(C(=O)Nc2cccc([C@H](C)Nc3cncc(-c4ccc(S(N)(=O)=O)cc4)n3)c2)c1` [Compound 77], the IC50 is > 10 µM.
